Reference: patent US11071721B2, “Bicyclic amide compounds and methods of use thereof” (Genentech, Inc., priority 2016, dated 2021)

Target: human RIP1 kinase domain (2-375) (Homo sapiens (Human), UniProt Q13546)
Assay: RIP1 kinase inhibition assay (Transcreener ADP biochemical enzyme assay)
Settings: Ki app (Morrison tight-binding fit); 50 nM enzyme, 50 uM ATP, 2 hours incubation, fluorescence polarization
Method: RIP1 Kinase Inhibition Assays (Biochemical Assay):
The compounds of the present invention were tested for their capacity to inhibit RIP K activity as described below.
Enzyme assay: The ability of the receptor interacting protein kinase (RIPK1) to catalyze the hydrolysis of adenosine-5′-triphosphate (ATP) is monitored using the Transcreener ADP (adenosine-5′-diphosphate) assay (BellBrook Labs). Purified human RIP1 kinase domain (2-375) (50 nM) derived from a baculovirus-infected insect cell expression system is incubated with test compounds for 2 hours in 50 mM Hepes buffer (pH 7.5) containing 30 mM MgCl2, 1 mM dithiothreitol, 50 uM ATP, 0.002% Brij-35, and 0.5% dimethyl sulfoxide (DMSO). Reactions are quenched by the addition of 1× Bell Brooks Stop buffer B (20 mM Hepes (ph7.5), 40 mM ethylenediaminetetraacetic acid and 0.02% Brij-35) containing an additional 12 mM EDTA and 55 ug/mL ADP2 antibody and 4 nM ADP-AlexaFluor® 633 tracer. The tracer bound to the antibody is displaced by the ADP generated during the RIP1K reaction, which causes a decrease in fluorescence polarization that is measured by laser excitation at 633 nm with a FP microplate reader M1000. Fractional activity was plotted against test article concentration. Using Genedata Screener software (Genedata; Basel, Switzerland), the data were fit to the tight-binding apparent inhibition constant (Ki^app) Morrison equation [Williams, J. W. and Morrison, J. F. (1979) The kinetics of reversible tight-binding inhibition. Methods Enzymol 63: 437-67]. The following equation was used to calculate fractional activity and Ki^app:
[formula] where [E]T and [I]T are the total concentrations of active enzyme and test article, respectively.

Chain of human RIP1 kinase domain (2-375) (Q13546 2-375): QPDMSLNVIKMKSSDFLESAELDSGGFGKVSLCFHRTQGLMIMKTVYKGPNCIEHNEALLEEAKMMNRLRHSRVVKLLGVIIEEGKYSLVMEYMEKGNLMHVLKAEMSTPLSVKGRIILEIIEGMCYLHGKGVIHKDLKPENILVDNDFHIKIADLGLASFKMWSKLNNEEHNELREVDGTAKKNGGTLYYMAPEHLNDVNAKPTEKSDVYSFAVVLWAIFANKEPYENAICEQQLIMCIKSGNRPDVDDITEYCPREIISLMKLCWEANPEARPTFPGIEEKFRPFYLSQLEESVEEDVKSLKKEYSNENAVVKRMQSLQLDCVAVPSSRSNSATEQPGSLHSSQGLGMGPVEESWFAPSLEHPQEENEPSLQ

SMILES | Ki [nM]
O=C(c1nc2n(n1)C(c1ccccc1)CC2(F)F)N1CC(F)(F)C1 (racemic) [Example 1, (3,3-difluoroazetidin-1-yl)-(7,7-difluoro-5-phenyl-5,6-dihydropyrrolo[1,2-b][1,2,4]triazol-2-yl)methanone] | 57
O=C(c1nc2n(n1)[C@@H](c1ccccc1)C[C@@H]2F)N1CC(F)(F)C1 (racemic) [Example 2, (3,3-difluoroazetidin-1-yl)-[rac-(5R,7S)-7-fluoro-5-phenyl-6,7-dihydro-5H-pyrrolo[1,2-b][1,2,4]triazol-2-yl]methanone] | 478
O=C(c1nc2n(n1)CCC2c1ccccc1)N1CC(F)(F)C1 (racemic) [Example 4, (3,3-difluoroazetidin-1-yl)-(7-phenyl-6,7-dihydro-5H-pyrrolo[1,2-b][1,2,4]triazol-2-yl)methanone] | 205
O=C(c1nc2n(n1)CCOC2c1ccccc1)N1CC(F)(F)C1 (racemic) [Example 5, (3,3-difluoroazetidin-1-yl)-(8-phenyl-6,8-dihydro-5H-[1,2,4]triazolo[5,1-c][1,4]oxazin-2-yl)methanone] | 768
O=C(c1nc2n(n1)CCOC2c1ccccc1F)N1CC(F)(F)C1 (racemic) [Example 6, (3,3-difluoroazetidin-1-yl)-[8-(2-fluorophenyl)-6,8-dihydro-5H-[1,2,4]triazolo[5,1-c][1,4]oxazin-2-yl]methanone] | 722
CC(F)(F)C1CCc2nc(C(=O)N3CC(F)(F)C3)nn21 (racemic) [Example 8, (3,3-difluoroazetidin-1-yl)-[5-(1,1-difluoroethyl)-6,7-dihydro-5H-pyrrolo[1,2-b][1,2,4]triazol-2-yl]methanone] | 8690
O=C(c1cc2n(n1)CCOC2c1ccccc1)N1CC(F)(F)C1 (racemic) [Example 13, (3,3-difluoroazetidin-1-yl)-(4-phenyl-6,7-dihydro-4H-pyrazolo[5,1-c][1,4]oxazin-2-yl)methanone] | 1140
O=C(c1nc2n(n1)C(c1ccccc1)CC2)N1CC(F)(F)C1 (racemic) [Example 16, (3,3-difluoroazetidin-1-yl)-(5-phenyl-6,7-dihydro-H-pyrrolo[1,2-b][1,2,4]triazol-2-yl)methanone] | 105
COC1CN(C(=O)c2nc3n(n2)C(c2ccccc2)CC3)C1 (racemic) [Example 17, (3-methoxyazetidin-1-yl)-(5-phenyl-6,7-dihydro-5H-pyrrolo[1,2-b][1,2,4]triazol-2-yl)methanone] | 1370
O=C(c1nc2n(n1)C(c1ccccc1)CC2)N1CC(F)C1 (racemic) [Example 18, (3-fluoroazetidin-1-yl)-(5-phenyl-6,7-dihydro-5H-pyrrolo[1,2-b][1,2,4]triazol-2-yl)methanone] | 343
CC1CN(C(=O)c2nc3n(n2)C(c2ccccc2)CC3)C1 (racemic) [Example 19, (3-methylazetidin-1-yl)-(5-phenyl-6,7-dihydro-5H-pyrrolo[1,2-b][1,2,4]triazol-2-yl)methanone] | 465
CC1(F)CN(C(=O)c2nc3n(n2)C(c2ccccc2)CC3)C1 (racemic) [Example 20, (3-fluoro-3-methyl-azetidin-1-yl)-(5-phenyl-6,7-dihydro-5H-pyrrolo[1,2-b][1,2,4]triazol-2-yl)methanone] | 271
CCC1CN(C(=O)c2nc3n(n2)C(c2ccccc2)CC3)C1 (racemic) [Example 21, (3-ethylazetidin-1-yl)-(5-phenyl-6,7-dihydro-5H-pyrrolo[1,2-b][1,2,4]triazol-2-yl)methanone] | 1360
O=C(c1nc2n(n1)C(c1ccccc1F)CC2)N1CCC1 (racemic) [Example 22, Azetidin-1-yl-[5-(2-fluorophenyl)-6,7-dihydro-5H-pyrrolo[1,2-b][1,2,4]triazol-2-yl]methanone] | 511
O=C(c1nc2n(n1)C(c1ccccc1F)CC2)N1CC(F)(F)C1 (racemic) [Example 23, (3,3-difluroroazetidin-1-yl)-[5-(2-fluorophenyl)-6,7-dihydro-5H-pyrrolo[1,2-b][1,2,4]triazol-2-yl]methanone] | 44
